Laboratory results published in patent US12264356B2, “Method for determining sensitivity to SGLT2 inhibitor and sensitivity marker for SGLT2 inhibitor” (NIHON UNIVERSITY, priority 2019, dated 2025).

Test system: patients suffering from coronary artery disease complicated with type 2 diabetes
Assay: Administration of SGLT2 inhibitor (50 mg Ipragliflozin) for 3 months; changes in individual indicators before and after administration
Type: in vivo, human
Conditions: for 1,5-AG after administration of SGLT2 inhibitor: P <0.001
Method: Thirty patients suffering from coronary artery disease complicated with type 2 diabetes (28 male patients and 2 female patients; average age: 70.5±8.1 years old) who did outpatient visit and could not sufficiently control their blood glucose level only by administration with an oral hypoglycemic agent were used as subjects. Patients whose casual urinary sugar was positive before administration of the agent were excluded from the subjects. The aforementioned patients were administered with the SGLT2 inhibitor (50 mg Ipragliflozin; 30 cases) alone or in combination with other oral hypoglycemic agents for 3 months. In the additional administration groups, the antidiabetic agents used in combination with the SGLT2 inhibitor were 10 cases of sulfonylurea drugs, 19 cases of DPP-4 inhibitors, 9 cases of thiazolidine drugs, and 4 cases of metformin. The average number of the combined agents was 2.4. During the observation period, the combined antidiabetic agents were not changed.
Before administration of the SGLT2 inhibitor and 3 months after the first administration, 1,5-AG, HbA1c, casual urinary sugar (U-Sugar), LDL cholesterol (LDL-C), hematocrit (Ht), NT-proBNP, and eGFR (estimated glomerular filtration rate) were measured, and changes in individual indicators before and after the administration were examined. Moreover, regarding cases in which the 1,5-AG value before administration of the SGLT2 inhibitor was less than 13 μg/mL (19 male patient cases), changes in individual indicators before and after the administration were examined.
1,5-AG was measured by an enzymatic method (the aforementioned Lana 1,5AG Auto Liquid, manufactured by Nippon Kayaku Co., Ltd.); HbA1c was measured by an HPLC method (manufactured by Tosoh Co., Ltd.); casual urinary sugar was measured by a test paper method (manufactured by Eiken Chemical Co., Ltd.); and LDL cholesterol was measured by an enzymatic method (manufactured by SEKISUI MEDICAL CO., LTD.) and NT-pro BNP was measured by an ELC-EIA method (manufactured by Roche Diagnostics K. K.).
In Table 5 and Table 6, the results are shown with mean±SD, and for statistical analyses, a paired t-test was applied, and p<0.05 was defined to be statistically significant.

## OC[C@H]1O[C@@H](c2ccc(F)c(Cc3cc4ccccc4s3)c2)[C@H](O)[C@@H](O)[C@@H]1O [Ipragliflozin]
19 male patients with 1,5-AG less than 13 μg/mL before administration, 50 mg, 3 months, mean ± SD, before 8.6 ± 2.9
  1,5-AG after administration of SGLT2 inhibitor: 1.7 ± 0.8 µg/mL
19 male patients with 1,5-AG less than 13 μg/mL before administration, 3 months, before 7.2 ± 0.8, P = 0.13
  HbA1c after administration of SGLT2 inhibitor: 6.8 ± 0.6
30 patients, 50 mg, 3 months after first administration, mean ± SD, before administration 12.8 ± 6.7
  1,5-AG after administration of SGLT2 inhibitor: 2.5 ± 2.0
30 patients, 50 mg, 3 months, mean ± SD, before 7.0 ± 0.8, P = 0.40
  HbA1c after administration of SGLT2 inhibitor: 7.2 ± 1.2
